Experimental data reported in patent publication US20070231382A1, “Pharmaceutical composition” (priority 2001, published 2007).

Assays:
[1] = Compressibility of the drug substance; format: physicochemical; settings: drug substance and its pharmaceutically acceptable salts
Protocol: WO 99/11605, published Mar. 11, 1999 discloses 5-alkyl-2-arylaminophenylacetic acids and derivatives thereof as potent, selective inhibitors of cyclooxygenase-2. […] This active agent, when administered once a day, in a single, immediate release tablet formulation in an amount of about 400 mg, where the active agent comprises about 65% by weight of the tablet, provides effective anti-inflammatory treatment over a 24 hour period, without the use of extended release pharmaceutical formulation excipients and technology, and in a tablet form which is of a size that is easy to swallow.

[2] = Clinical efficacy of once a day oral dose (anti-inflammatory, analgesic); format: in vivo, humans
Protocol: Such an agent is particularly useful in the treatment of chronic indications, such as rheumatoid arthritis and osteoarthritis as well as Alzheimer's Disease and prophylaxis of colon cancer, where the drug needs to be taken every day for the duration of a subject's life, because compliance is much easier with once a day dosing.
A single, 400 mg tablet that is easy to swallow facilitates compliance with a once-a-day, 400 mg dose treatment regimen.

[3] = Plasma half life after oral administration; format: in vivo; settings: human
Description: The immediate release pharmaceutical compositions of the invention, and which are useful in the kits and methods of the invention are “immediate release” tablet dosage forms. The tablets of the invention have neither the pharmacokinetic nor physical characteristics of extended release pharmaceutical dosage forms. Thus, a tablet of the invention will disintegrate or dissolve rapidly, preferably within one hour of administration, and administration of a tablet of the invention will result in a rapid rise in the blood plasma concentration of 5-methyl-2-(2′-chloro-6′-fluoroanilino)phenylacetic acid.

Compressibility [1]: poor compressibility | half-life [3]: 180 to 360 min
SMILES: Cc1ccc(Nc2c(F)cccc2Cl)c(CC(=O)O)c1 [5-methyl-2-(2′-chloro-6′-fluoroanilino)phenylacetic acid]
Analgesic efficacy ([2]; 400 mg): effective analgesic dose | Anti-inflammatory treatment, duration of action ([2]; humans, single oral dose of about 400 mg per day, immediate-release tablet): effective, safe anti-inflammatory treatment over a 24 hour period
